Measured values reported in patent US20130065931A1, “METHODS FOR REDUCING WIREWORM DAMAGE TO CROPS” (priority 2011, published 2013).

Tested on: wireworm
Experiment: Efficacy of chemical treatments on wireworm in potatoes grown in Washington State
Assay type: in vivo
Conditions: result in words; values only in the figure
From the text: Experimental procedure for determining the efficacy of various chemical treatments on wire-worm in potatoes grown in Washington State, United States. Potato seed Solarium tuberosum L., ‘Russet Burbank’ was used in this experiment. Seeds were planted at a depth of 8 inches with spacing within the row at 10 inches and between rows at 34 inches. The experimental site was a 12 ft. by 20 ft. plot containing four experimental replications. [table] [table] [table]

CCOC(=O)OC1=C(c2cc(C)ccc2C)C(=O)N[C@]12CC[C@@H](OC)CC2 [spirotetramat]
percent reduction in wireworm infestation of potatoes (FIG. 3): confirm the efficacy
